According to the supplement of paper PMC8671470:

Experiments:
Conditions in all cases: 72 h
HL-60 [1] = assay: cell viability (% survival relative to DMSO control); higher = less cytotoxic
In short: (§1)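 HL-60 cells in RPMI 1640 with 10% FBS were rescreened against the full library on 384-well plates at five tenfold concentrations, 1–10,000 nM, in duplicate. Each screen was run with DMSO or 100 nM of one of three metabolic inhibitors, for 72 h at 37 °C, 5% CO2. Viability was read by CellTiter-Glo and normalised to DMSO and 10 μM proteasome-inhibitor wells. Where given, area under the curve came from four-parameter log-logistic fits (drc, PharmacoGx).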

MV4-11 [2] = system: MV4-11
In short: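 Fifteen myeloid leukaemia lines in RPMI 1640 were treated for 72 h at 37 °C and 5% CO2 with five tenfold doses from 1 to 10,000 nM, in duplicate. ATP luminescence was normalised to vehicle and to a positive control at 10 µM, then fitted with a four-parameter log-logistic model. The IC50 came from these fits.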

HL-60 [3] = assay: area under dose-response curve (viability, 1 nM-10 uM) (fraction (0-1)); higher = more sensitive
In short: as §1

HL-60 [4] = assay: cell viability (% survival relative to DMSO control, bortezomib = 0%); higher = less cytotoxic
In short: (§2)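 Reported values are percent survival from duplicate wells, averaged. Fifteen myeloid leukaemia cell lines were treated in 384-well plates with compounds at 1, 10, 100, 1000 or 10000 nM for 72 h at 37 °C in 5% CO2. Signals from CellTiter-Glo luminescence were scaled with vehicle as 100% and a 10 µM positive control as 0%.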

HEL = assay: as above
In short: as §2

LAMA-84 = assay: as above
In short: as §2

KU-812 = assay: as above
In short: as §2

THP-1 = assay: as above
In short: as §2

SHI-1 = assay: as above
In short: as §2

NOMO-1 = assay: as above
In short: as §2

MOLM-13 = assay: as above
In short: as §2

BV-173 = assay: as above
In short: as §2

MV4-11 [5] = assay: as above
In short: as §2

Mono-Mac-6 = assay: as above
In short: as §2

KCL-22 = assay: as above
In short: as §2

KG-1 = assay: as above
In short: as §2

ML-2 = assay: as above
In short: as §2

K-562 = assay: as above
In short: as §2

CC(C)(C#N)c1cc(Cn2cncn2)cc(C(C)(C)C#N)c1 [Anastrozole]
cell viability [%], HL-60 [1]
Conditions | 0.001 µM | 0.01 µM | 0.1 µM | 1 µM | 10 µM
co-treatment: AZD3965 100 nM | 97.5 | 101.3 | 102 | 102 | 100
co-treatment: DMSO vehicle | 101 | 100 | 101 | 101.7 | 102
co-treatment: GSK2194069 100 nM | 96.7 | 94.4 | 120 | 102 | 100
co-treatment: pictilisib 100 nM | 104 | 92.3 | 106 | 108 | 101

Conditions | IC50 (cell viability) [µM]
MV4-11 [2] | > 10

Conditions | area under dose-response curve, co-treatment: AZD3965 100 nM | area under dose-response curve, co-treatment: DMSO vehicle | area under dose-response curve, co-treatment: GSK2194069 100 nM | area under dose-response curve, co-treatment: pictilisib 100 nM | cell viability, 1 nM [%] | cell viability, 10 nM [%] | cell viability, 100 nM [%] | cell viability, 1000 nM [%] | cell viability, 10000 nM [%]
BV-173 | – | – | – | – | 104 | 89.4 | 104 | 95.9 | 104
HEL | – | – | – | – | 92.8 | 96.5 | 105 | 97.1 | 105
HL-60 [3] | < 0.0301 | < 0.0301 | < 0.0301 | < 0.0301 | – | – | – | – | –
HL-60 [4] | – | – | – | – | 103 | 99.7 | 89.3 | 93.8 | 91.6
K-562 | – | – | – | – | 109 | 95.3 | 106 | 93.2 | 92.1
KCL-22 | – | – | – | – | 102 | 91.6 | 111 | 91.7 | 102
KG-1 | – | – | – | – | 98.4 | 97.2 | 103 | 92 | 93.8
KU-812 | – | – | – | – | 86.1 | 90.6 | 100 | 90.5 | 90
LAMA-84 | – | – | – | – | 93.5 | 97.6 | 96.3 | 99.9 | 97.7
ML-2 | – | – | – | – | 106 | 100 | 106 | 90.5 | 93
MOLM-13 | – | – | – | – | 97.4 | 90.8 | 88.2 | 104 | 103
MV4-11 [5] | – | – | – | – | 116 | 99.4 | 92.9 | 87.8 | 96.4
Mono-Mac-6 | – | – | – | – | 103 | 102 | 111 | 102 | 89.7
NOMO-1 | – | – | – | – | 90.6 | 103 | 96.4 | 99.6 | 102
SHI-1 | – | – | – | – | 108 | 94.5 | 102 | 101 | 103
THP-1 | – | – | – | – | 102 | 93.4 | 99.8 | 99.9 | 96.3

CC[C@H](C)C(=O)O[C@H]1C[C@@H](C)C=C2C=C[C@H](C)[C@H](CC[C@@H]3C[C@@H](O)CC(=O)O3)[C@H]21 [Lovastatin]
cell viability [%], HL-60 [1]
Conditions | 0.001 µM | 0.01 µM | 0.1 µM | 1 µM | 10 µM
co-treatment: AZD3965 100 nM | 92.4 | 104.3 | 101 | 98.2 | 94.1
co-treatment: DMSO vehicle | 96.8 | 102 | 101 | 96.5 | 95.5
co-treatment: GSK2194069 100 nM | 104 | 107 | 104 | 102 | 98.48
co-treatment: pictilisib 100 nM | 98.2 | 105 | 98.1 | 94.1 | 75.54

Conditions | IC50 (cell viability) [µM]
MV4-11 [2] | > 10

Conditions | area under dose-response curve, co-treatment: AZD3965 100 nM | area under dose-response curve, co-treatment: DMSO vehicle | area under dose-response curve, co-treatment: GSK2194069 100 nM | area under dose-response curve, co-treatment: pictilisib 100 nM | cell viability, 1 nM [%] | cell viability, 10 nM [%] | cell viability, 100 nM [%] | cell viability, 1000 nM [%] | cell viability, 10000 nM [%]
BV-173 | – | – | – | – | 109 | 94.6 | 95.3 | 98.7 | 79.1
HEL | – | – | – | – | 101 | 87.8 | 114 | 92.6 | 86.3
HL-60 [3] | < 0.0301 | < 0.0301 | < 0.0301 | 0.0554 | – | – | – | – | –
HL-60 [4] | – | – | – | – | 96.8 | 113 | 101 | 101 | 102
K-562 | – | – | – | – | 108 | 98.9 | 101 | 99.3 | 88.4
KCL-22 | – | – | – | – | 93.6 | 67.8 | 114 | 98.8 | 95.4
KG-1 | – | – | – | – | 98.7 | 93.3 | 107 | 96.3 | 90.2
KU-812 | – | – | – | – | 102 | 96.4 | 94 | 87.2 | 84
LAMA-84 | – | – | – | – | 88.8 | 103 | 104 | 92.3 | 90.9
ML-2 | – | – | – | – | 108 | 105 | 111 | 104 | 102
MOLM-13 | – | – | – | – | 86.4 | 85.7 | 83.8 | 87.4 | 74.7
MV4-11 [5] | – | – | – | – | 97.6 | 97.3 | 106 | 93.5 | 93.2
Mono-Mac-6 | – | – | – | – | 97.4 | 101 | 95.7 | 96.8 | 92.2
NOMO-1 | – | – | – | – | 101 | 91.9 | 97.2 | 93.6 | 90.7
SHI-1 | – | – | – | – | 97.5 | 97.6 | 104 | 93.8 | 92.5
THP-1 | – | – | – | – | 98.1 | 88.8 | 100 | 97.3 | 98.6

O=c1cc(-c2ccccc2)oc2cc(O)c(O)c(O)c12 [Baicalein]
cell viability [%], HL-60 [1]
Conditions | 0.001 µM | 0.01 µM | 0.1 µM | 1 µM | 10 µM
co-treatment: AZD3965 100 nM | 99.72 | 100 | 103 | 97.6 | 101.4
co-treatment: DMSO vehicle | 102.7 | 102 | 101 | 98.895 | 102
co-treatment: GSK2194069 100 nM | 97.26 | 102 | 93.5 | 98.1 | 99.8
co-treatment: pictilisib 100 nM | 99.21 | 106 | 98.9 | 106 | 89.5

Conditions | IC50 (cell viability) [µM]
MV4-11 [2] | > 10

Conditions | area under dose-response curve, co-treatment: AZD3965 100 nM | area under dose-response curve, co-treatment: DMSO vehicle | area under dose-response curve, co-treatment: GSK2194069 100 nM | area under dose-response curve, co-treatment: pictilisib 100 nM | cell viability, 1 nM [%] | cell viability, 10 nM [%] | cell viability, 100 nM [%] | cell viability, 1000 nM [%] | cell viability, 10000 nM [%]
BV-173 | – | – | – | – | 100 | 99.5 | 96.2 | 154 | 64.2
HEL | – | – | – | – | 108 | 88.2 | 109 | 137 | 75.4
HL-60 [3] | < 0.0301 | < 0.0301 | < 0.0301 | < 0.0301 | – | – | – | – | –
HL-60 [4] | – | – | – | – | 110 | 86.7 | 114 | 85.3 | 43
K-562 | – | – | – | – | 104 | 104 | 102 | 108 | 45.6
KCL-22 | – | – | – | – | 95 | 70.2 | 113 | 102 | 49.3
KG-1 | – | – | – | – | 96.9 | 96.7 | 112 | 87.8 | 51
KU-812 | – | – | – | – | 93.5 | 94.1 | 99.4 | 108 | 61.4
LAMA-84 | – | – | – | – | 98.2 | 99.6 | 94.4 | 104 | 75
ML-2 | – | – | – | – | 98.9 | 93.2 | 87.5 | 97.9 | 37.7
MOLM-13 | – | – | – | – | 97.4 | 72 | 132 | 92.1 | 69.3
MV4-11 [5] | – | – | – | – | 97.8 | 102 | 98.7 | 113 | 54
Mono-Mac-6 | – | – | – | – | 103 | 102 | 99.2 | 117 | 75.4
NOMO-1 | – | – | – | – | 99.2 | 91.3 | 104 | 123 | 98.2
SHI-1 | – | – | – | – | 109 | 92 | 126 | 97.2 | 82.8
THP-1 | – | – | – | – | 99.4 | 95.6 | 93.5 | 92.5 | 85.9
